In patent publication US11713305B2, “Zinc sensors for in vivo imaging of beta-cell function by MRI” (The Board of Regents of the University of Texas System, priority 2017, dated 2023):

How the values were obtained:
HSA [1] = target: T1, HSA (Homo sapiens, UniProt P02768); assay: Proton relaxation enhancement (PRE) titrations with HSA; type: binding; settings: for r1^c (relaxivity of the bound state): HSA-bound GdL-Zn, from PRE fit; for Kd: fitting proton relaxation enhancement data to equation (1), 20 MHz, 310 K, read-out: KD(GdLZnHSA)
T1 construct: purchased Sigma-Aldrich
T1 sequence (P02768 25-609): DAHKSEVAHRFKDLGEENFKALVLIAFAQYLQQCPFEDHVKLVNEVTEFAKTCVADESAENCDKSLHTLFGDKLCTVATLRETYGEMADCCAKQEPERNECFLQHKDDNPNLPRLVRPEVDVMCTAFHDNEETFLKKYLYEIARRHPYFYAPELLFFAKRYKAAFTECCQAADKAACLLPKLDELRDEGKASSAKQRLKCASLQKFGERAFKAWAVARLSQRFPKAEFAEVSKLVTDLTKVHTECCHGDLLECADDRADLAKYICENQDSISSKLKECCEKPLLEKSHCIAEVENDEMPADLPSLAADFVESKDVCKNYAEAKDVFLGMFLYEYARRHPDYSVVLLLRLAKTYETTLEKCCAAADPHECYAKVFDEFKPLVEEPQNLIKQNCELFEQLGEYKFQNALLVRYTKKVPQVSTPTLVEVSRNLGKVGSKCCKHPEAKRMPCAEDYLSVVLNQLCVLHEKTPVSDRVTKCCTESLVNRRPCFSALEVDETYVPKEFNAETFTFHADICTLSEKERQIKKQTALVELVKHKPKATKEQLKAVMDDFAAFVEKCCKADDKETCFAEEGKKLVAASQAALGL
Experimental: Proton relaxation enhancement (PRE) titrations were performed to evaluate the binding of these agents to HSA under conditions where the concentration of HSA was varied while the concentration of GdL and Zn^2+ (1:1) were held constant (FIG. 6). […] These types of complexes only bind to HSA-binding site 2 of subdomain IIIA, so n was assumed=1.
Affinity constants to HSA were assessed by proton relaxation enhancement (PRE) measurements according to published procedures (Martins et al., 2013a; Martins et al., 2013b) The proton relaxation rates at increasing concentrations of protein were measured with a MRS-6 NMR analyzer (20 MHz, 310 K). For the E-titration, the concentrations of GdL complex (0.1 mM) and Zn(II) (0.1 mM) were kept constant, while the protein concentration was varied from 0 to 0.6 mM.

HSA [2] = target: T1, HSA; assay: HSA dissociation constant by fluorescence competition with dansylglycine; type: binding; settings: one site competition fitting with dansylglycine; in presence of Zn^2+; read-out: KD(GdLZnHSA)
Experimental: The procedures reported by Esqueda et al were followed (2009). A solution containing 5 μM of dansylglycine (or warfarin), 5 μM HSA, 400 μM GdL plus one equivalent of Zn^2+ was prepared in TRIS buffer. Aliquots of this solution were 2-fold diluted serially ten times by addition of a solution which contained the same concentrations of dansylglycine (warfarin) and HSA but no agent. The fluorescence of 100 μL aliquots was measured in triplicate in 96 well plates. In a similar manner solutions containing agent, HSA but no dansylglycine (warfarin), were also included. Four 100 μL aliquots of the solution containing no agent (maximum fluorescent intensity) were also measured in the same 96 well plate, along with four 100 μL aliquots of HSA in buffer.
The excitation and emission wavelengths used for the dansylglycine: 360 and 465 nm, respectively. The excitation and emission wavelengths used for warfarin: 320 and 380 nm, respectively.

[3] = GdL-Zn dissociation constants by fluorescence (ZnAF-2F competition); type: binding; settings: K2 in FIG. 4; Tris buffer; read-out: KD(GdLZn)
Experimental: The procedures reported by Esqueda et al were followed (Esqueda et al., 2009). Solutions containing 1 μM of ZnAF-2F, 0.05 μM ZnCl2 and 100 μM GdL sensors were prepared in TRIS buffer. Aliquots of this solution were 3-fold diluted serially 10 times by addition of a buffered solution containing the same concentration of ZnAF-2F and ZnCl2 but no agent. The fluorescence was measured in triplicate in 96 well plates (100 μL). In a similar manner solutions containing agent, ZnCl2 but no fluorescent probe, were prepared and fluorescence measured by triplicate to account for any signal coming from the agent interacting with Zn^2+. The excitation and emission wavelengths used were 492 and 514 nm, respectively. The Zn dissociation constant was determined by fitting the data to the following equations:
[formula] F is the measured corrected fluorescence. Fmin is the minimal fluorescence observed in the competition binding experiment. Fmax corresponds to the fluorescence in absence of competitor. [GdL]o is the concentration of the zinc sensor chosen. IC50 corresponds to the concentration of competitor that decreases by 50% the % F. K′D is the dissociation constant of the competitor. [FP]o is the total concentration of the fluorescent probe. KD is the dissociation constant of the fluorescent probe and Zn^2+.

[4] = r1 relaxivity measurements (20 MHz, 0.5 T, 37° C.); type: physicochemical; settings: 100 mM Tris buffer; for r1 0.6 mM HSA alone / r1 No Zn^2+: no Zn^2+; for r1 With Zn^2+ / r1 Zn^2+ + 0.6 mM HSA: CA:Zn = 1:1; for r1 No Zn^2+: no HSA
Experimental: Longitudinal relaxation times were measured using inversion recovery method on a MRS-6 NMR analyzer from the Institute Joz̆ef Stefan (Ljubljana, Slovenija) operating at 20 MHz. Relaxivity was determined by linear regression analysis of the relaxation rates of five solutions (0-1.0 mM). All samples were measured at 310 K using a warm air blower. Five different sample concentrations (0, 0.25, 0.5, 0.75, 1.0 mM) of gadolinium complex were made up in Tris buffer at 0.1 M and pH 7.4 to generate the relaxivity value for the free complex. ZnCl2 was then added to each of the above sample to produce a [Gd]:[Zn] ratio of 1:1. After 30 min of incubation at 310 K, T1 measurements were performed, from which the relaxivity of sensor-Zn^2+ was calculated. Finally, HSA was added to each of above sample to achieve HSA concentration of 0.6 mM. After further incubation at 310 K for 30 min, T1 of each sensor-Zn^2+-HSA adduct was measured, from which the relaxivity of sensor-Zn^2+-HSA adduct was calculated. Zinc titrations were performed with constant [GdL]=0.5 mM and increasing amounts of [Zn^2+]=0-2 mM in Tris buffer at 0.1 M and pH 7.4.

[5] = Kinetic inertness (transmetalation by Zn(II) in phosphate buffer); type: physicochemical; settings: four equivalents of Zn^2+ in phosphate buffer (pH=7), 310 K
Source text: Shortly after the first confirmed clinical cases of nephrogenic systemic fibrosis (NSF), increased efforts have been made to design agents with high thermodynamic stability and kinetic inertness (Kallen et al., 2008; Reilly, 2008; Rofsky et al., 2008; Wiginton et al., 2008; Abujuden et al., 2009). The sensors shown here are very stable macrocyclic DO3A-monoamide derivatives with reported log KML>20. However, given that the agents reported here also have a high affinity for Zn^2+ ions, and Zn^2+ has been implicated as the major competing ion for transmetalation of Gd^3+ agents derived from linear polyamine ligands, the kinetic rate of Gd^3+ release is arguably the most critical factor in determining in vivo toxicity (Laurent et al., 2010). Using a previously published method (Laurent et al., 2010) consisting of incubating each agent with four equivalents of Zn^2+ in phosphate buffer (pH=7), we compared the kinetic stability of the agents reported here with the FDA-approved agent Magnevist® (GdDTPA, cf. FIG. 7).
Kinetic inertness was determined according to published procedures with minor modifications (Laurent et al., 2010; Silverio et al., 2009). Stock solutions of phosphate buffer (67 mM, pH=7.4), Gd(III) chelates (10 mM) and ZnCl2 (231 mM) were prepared first. Calculated volumes of stock solutions or water were pipetted into small glass vials to obtain a test solution of 300 μL with 30 mM phosphate, 1.5 mM Gd(III) chelate, and 6.0 mM Zn(II). Samples were measured 15 minutes after the sample temperature stabilized at 310 K. During the entire experiment, the samples inside the NMR tubes were kept in an incubator at 310 K. The T1 of the solutions was determined at 310 K and 0.47 T (20 MHz) at various time points within 7 days. As a reference, GdDTPA was analyzed under the same conditions. The R1^P relaxation rate is obtained by subtracting the diamagnetic contribution of the water relaxation (0.28 s-1) from the observed relaxation rate R1=(1/T1).

Row | r1^c (relaxivity of the bound state) (HSA [1]) [s⁻¹ mM⁻¹] | Kd (HSA [1]) [µM] | Kd (HSA [2]) [µM] | Kd [3] [µM] | r1 0.6 mM HSA alone [4] [s⁻¹ mM⁻¹] | r1 With Zn^2+ [4] | r1 Zn^2+ + 0.6 mM HSA [4] | r1 No Zn^2+ [4] [s⁻¹ mM⁻¹] | kinetic stability against transmetalation [5] | Structure (SMILES)
1 | 20 ± 0.5 | 48 ± 6 | 36 ± 1 | 0.118 | 5.8 ± 0.1 | 5.2 ± 0.1^b s^−1 mM^−1 | 17.8 ± 0.5^b s^−1 mM^−1 | 4.8 ± 0.1 | kinetically inert | O=C(O)CN1CCN(CC(=O)O)CCN(CC(=O)NCCN(Cc2ccccn2)Cc2ccccn2)CCN(CC(=O)O)CC1 [GdL1]
2 | 28 ± 0.3 | 49 ± 7 | 37 ± 1 | 0.19 ± 0.005 | 6.5 ± 0.1 | 5.5 ± 0.1^b s^−1 mM^−1 | 19.8 ± 0.6^b s^−1 mM^−1 | 4.9 ± 0.1 | kinetically inert | O=C(O)CN1CCN(CCC(=O)NCCN(Cc2ccccn2)Cc2ccccn2)CCN(CC(=O)O)CCN(CC(=O)O)CC1 [GdL2]
3 | 30 ± 0.6 | 51 ± 7 | 37 ± 1 | 0.185 ± 0.005 | 6.9 ± 0.2 | 5.4 ± 0.1^b s^−1 mM^−1 | 21.5 ± 0.7^b s^−1 mM^−1 | 5.0 ± 0.1 |  | O=C(O)CCN1CCN(CC(=O)O)CCN(CC(=O)NCCN(Cc2ccccn2)Cc2ccccn2)CCN(CC(=O)O)CC1 [GdL3]
4 | 12 ± 0.3 | 55 ± 12 | 42 ± 1 | 2.35 | 5.6 ± 0.1 | 5.1 ± 0.1^b s^−1 mM^−1 | 11.4 ± 0.3^b s^−1 mM^−1 | 4.7 ± 0.1 | kinetically inert | O=C(O)CN1CCN(CC(=O)O)CCN(CC(=O)NCCN(CCc2ccccn2)Cc2ccccn2)CCN(CC(=O)O)CC1 [GdL4]
5 | 12 ± 0.3 | 54 ± 1 | 43 ± 1 | 2.57 ± 0.054 | 6.3 ± 0.2 | 5.3 ± 0.1^b s^−1 mM^−1 | 10.4 ± 0.3^b s^−1 mM^−1 | 4.9 ± 0.1 |  | O=C(O)CN1CCN(CCC(=O)NCCN(CCc2ccccn2)Cc2ccccn2)CCN(CC(=O)O)CCN(CC(=O)O)CC1 [GdL5]
